Data published in patent US20180243289A1, “[…] COMPOUNDS FOR TREATING AGITATION” (Concert Pharmaceuticals, Inc., priority 2015, published 2018).
Where a name gives a salt, the structure may show the parent alone.

What was measured:
CYP2D6 = biological target: T1, CYP2D6 (Homo sapiens, UniProt P10635); assay: Metabolic stability in CYP2D6 SUPERSOMES; type: in vitro ADME; settings: recombinant CYP2D6 SUPERSOMES, 50 pmol/mL CYP2D6 SUPERSOMES, 1 μM test compound, 2 mM NADPH, pH 7.4, 37° C., 0-30 min, read-out: t1/2 ± SD, calculated half-life in SUPERSOMES
T1 construct: purchased GenTest (Woburn, Mass., USA)
Protocol: Human CYP2D6 SUPERSOMES™ were purchased from GenTest (Woburn, Mass., USA). 7.5 mM stock solutions of test compounds (Compounds 100, 102, and the ethyl ether analog of dextromethorphan (“dextroethorphan”) were prepared in DMSO. The 7.5 mM stock solutions were diluted to 50 μM in acetonitrile (ACN). The 1000 pmol/mL CYP2D6 supersomes were diluted to 62.5 pmol/mL in 0.1 M potassium phosphate buffer, pH 7.4, containing 3 mM MgCl2. The diluted SUPERSOMES™ were added to wells of a 96-well deep-well polypropylene plate in triplicate. 10 μL of the 50 μM test compound was added to the supersomes and the mixture was pre-warmed for 10 minutes. Reactions were initiated by addition of pre-warmed NADPH solution. The final reaction volume was 0.5 mL and contained 50 pmol/mL CYP2D6 SUPERSOMES™, 1 μM test compound, and 2 mM NADPH in 0.1 M potassium phosphate buffer, pH 7.4, and 3 mM MgCl2. The reaction mixtures were incubated at 37° C. and 50 μL aliquots were removed at 0, 5, 10, 20, and 30 minutes and added to shallow-well 96-well plates which contained 50 μL of ice-cold ACN with internal standard to stop the reactions. The plates were stored at 4° C. for 20 minutes after which 100 μL of water was added to the wells of the plate before centrifugation to pellet precipitated proteins. Supernatants were transferred to another 96-well plate and analyzed for amounts of parent remaining by LC-MS/MS using an Applied Bio-systems API 4000 mass spectrometer.
The in vitro half-life (t1/2) for each of the test compounds was calculated from the slopes of the linear regression of % parent remaining (ln) vs incubation time relationship: in vitro t1/2=0.693/k, where k=−[slope of linear regression of % parent remaining (ln) vs incubation time]. Data analysis was performed using Microsoft Excel Software.

[1] = Metabolic stability using human liver microsomes; type: in vitro ADME; settings: for half-life at 1 μM / Change over non-deuterated compound (Table 3): Table 3 experiment; for half-life at 1 μM: read-out: t1/2 ± SD, calculated half-life in human liver microsomes (Table 3); for Change over non-deuterated compound (Table 3): change of half-life in human liver microsomes vs dextroethorphan
Protocol: Human liver microsomes (20 mg/mL) were obtained from Xenotech, LLC (Lenexa, Kans.). β-nicotinamide adenine dinucleotide phosphate, reduced form (NADPH), magnesium chloride (MgCl2), and dimethyl sulfoxide (DMSO) were purchased from Sigma-Aldrich.
7.5 mM stock solutions of test compounds were prepared in DMSO. The 7.5 mM stock solutions were diluted to 50 μM in acetonitrile (ACN). The 20 mg/mL human liver microsomes were diluted to 1.25 mg/mL (1 mg/mL final) in 0.1 M potassium phosphate buffer, pH 7.4, containing 3 mM MgCl2. The diluted microsomes (375 μL) were added to wells of a 96-well polypropylene plate in triplicate. 10 μL of the 50 μM test compound was added to the microsomes and the mixture was pre-warmed for 10 minutes. Reactions were initiated by addition of 125 μL of pre-warmed NADPH solution. The final reaction volume was 0.5 mL and contained 1.0 mg/mL human liver microsomes, 1 μM test compound, and 2 mM NADPH in 0.1 M potassium phosphate buffer, pH 7.4, and 3 mM MgCl2. The reaction mixtures were incubated at 37° C., and 50 μL aliquots were removed at 0, 5, 10, 20, and 30 minutes and added to shallow 96-well plates which contained 50 μL of ice-cold ACN with internal standard to stop the reactions. The plates were stored at 4° C. for 20 minutes after which 100 μL of water was added to the wells of the plate before centrifugation to pellet precipitated proteins. Supernatants were transferred to another 96-well plate and analyzed for amounts of parent remaining by LC-MS/MS using an Applied Bio-systems API 4000 mass spectrometer. 7-ethoxy coumarin was used as a positive control.
The in vitro t1/2s for test compounds were calculated from the slopes of the linear regression of % parent remaining (ln) vs incubation time relationship:
in vitro t1/2=0.693/k, where k=−[slope of linear regression of % parent remaining(ln) vs incubation time]
Data analysis was performed using Microsoft Excel Software.

[2] = 1.0 mg/mL human liver microsomes, 1 μM test compound, 2 mM NADPH, pH 7.4, 37° C.

T1 sequence (P10635 whole entry): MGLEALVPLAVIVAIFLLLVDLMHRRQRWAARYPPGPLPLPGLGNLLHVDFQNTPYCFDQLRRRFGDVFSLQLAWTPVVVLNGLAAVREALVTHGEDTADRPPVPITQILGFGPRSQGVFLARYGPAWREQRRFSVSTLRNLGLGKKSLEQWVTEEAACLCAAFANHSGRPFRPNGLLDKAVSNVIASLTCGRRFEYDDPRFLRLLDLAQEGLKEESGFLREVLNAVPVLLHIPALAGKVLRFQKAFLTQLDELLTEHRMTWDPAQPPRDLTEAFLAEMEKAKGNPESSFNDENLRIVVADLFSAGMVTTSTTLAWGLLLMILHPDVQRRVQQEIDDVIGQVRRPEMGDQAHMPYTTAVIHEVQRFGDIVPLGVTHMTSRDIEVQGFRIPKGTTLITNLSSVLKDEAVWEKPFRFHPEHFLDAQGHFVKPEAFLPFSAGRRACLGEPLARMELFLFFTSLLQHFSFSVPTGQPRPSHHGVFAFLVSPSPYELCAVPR

SMILES | half-life at 1 μM (CYP2D6) | half-life at 1 μM [1, 2] | Change over non-deuterated compound (Table 3) [1] | t1/2 ± SD, calculated half-life in human liver microsomes (Table 4) ([1]; 1.0 mg/mL human liver microsomes, 1 μM test compound, 2 mM NADPH, pH 7.4, 37° C., Table 4 experiment)
COc1ccc2c(c1)[C@]13CCCC[C@@H]1[C@H](C2)N(C)CC3 [Dextromethorphan, (+)-3-methoxy-17-methyl-(9α,13α,14α)-morphinan, reference compound] | 1.7 ± 0.3 min |  |  | 
[2H]C([2H])([2H])N1CC[C@@]23CCCC[C@@H]2[C@@H]1Cc1ccc(OC([2H])([2H])C([2H])([2H])[2H])cc13 [Compound 100, (+)-3-(Ethoxy-d5)-17-(methyl-d3)-(9α,13α,14α)-morphinan hydrochloride] | 51.3 ± 3.7 min | 59.2 ± 1.7 min | 109% | 
[2H]C([2H])([2H])C([2H])([2H])Oc1ccc2c(c1)[C@]13CCCC[C@@H]1[C@H](C2)N(C)CC3 [Compound 104, (+)-3-(Ethoxy-d5)-17-methyl-(9α,13α,14α)-morphinan hydrochloride] | 49.1 ± 4.1 min | 59.1 ± 2.2 min | 109% | 
CCOc1ccc2c(c1)[C@@]13CCCC[C@H]1[C@@H](C2)N(C)CC3 [Dextroethorphan, (+)-3-ethoxy-17-methylmorphinan, reference compound] | 10.3 ± 2.1 min | 28.3 ± 0.6 min |  | 37.1 ± 5.6 min
